From paper PMC6804080, “Benzoxaboroles—Novel Autotaxin Inhibitors” (Molecules, 2019)
In brackets after ≈: the same amount, converted by molar mass. Several values for one entry are separate records, joined by “and”; a condition that tells them apart may be missing. Equal values may be shown once.

What was measured:
[1] = Chrom logD determination by gradient HPLC (CHI); format: physicochemical; details: pH 7.4, Luna C18 column; for chromatographic logD: reversed-phase HPLC, Phenomenex Luna C18 column
Description: clogP values were calculated for all compounds using the Percepta software. Chrom logD was determined experimentally using a procedure described in the supplementary data. Furthermore, the correlation between calculated clogP values and experimentally determined Chrom log D values were explored for molecules containing boron functional groups such as boronic acids and benzoxaboroles.
Chrom logD values were determined from the following equation: Chrom logD = 0.0857 × CHI − 2 [39]. Chromatographic hydrophobic index (CHI) values were determined from the gradient retention times (RT). These values approximately corresponded to the volume percentage of organic component in the mobile phase when the compound elutes. CHI values were determined at pH 7.4. Chromatograms were obtained using on Agilent 1100 Series liquid chromatography system with an HPLC diode-array detector (DAD) coupled with a Micromass Quattro micro atmosphere pressure ionization (API) mass spectrometer. The column used for analyses was Phenomenex Luna C18 (50 × 3 mm, 5 µm, 100 Å). The column was maintained at 25 °C. The flow rate was 1.0 mL/min. The mobile phase was composed of 50 mM ammonium acetate in water at pH 7.4 (solvent A) and acetonitrile (solvent B). The solvent gradient condition was initially 0.5% B, and then it increased linearly to 100% B over 3.0 min, remaining at 100% B for 0.5 min, then decreasing linearly to 0% B over 0.2 min followed by an equilibration period of 1.3 min prior to the next injection. The total experimental duration was 5 min. Injection volume was 2.0 µl. Samples temperature was maintained at 15 °C in the autosampler chamber. A group of ten standard compounds having different CHI values was used for calibration of RP-HPLC [40].

[2] = in vitro plasma stability, human plasma; format: in vitro ADME; details: after 4 h
Description: (§1) The in vitro plasma stability of the test compounds was studied in human and rat plasma with propranolol, benflorex, and eucatropine as control substances. All compounds at final concentrations of 5 μM (0.5% DMSO) were incubated in a phosphate buffer (50 mM, pH 7.4) for 4 h at 37 °C together with plasma. Aliquots were taken at different time points (0, 30, 120 min and 4 h), followed by reaction termination by the addition of CH3CN:CH3OH 2:1 v/v., which contained diclofenac and warfarin as internal standards (IS). Samples were then centrifuged (at 1600 rpm at 4 °C for 30 min), and the resulting supernatants were subjected to LC/MS/MS analysis. Results are expressed as % remaining.

[3] = metabolic stability in rat liver microsomes; format: in vitro ADME
Description: (§2) Metabolic stability was assessed in rat and human liver microsomes, with testosterone and propranolol as positive controls. All compounds, at a final concentration of 1 μM (0.03% DMSO), were incubated in a phosphate buffer (50 mM, pH 7.4) for 60 min at 37 °C, together with liver microsomes in the absence and presence of NADPH generating system (nicotinamide adenine dinucleotide phosphate (NADP, 2 mM), glucose-6-phosphate (20 mM), glucose-6-phosphate dehydrogenase (6U) and magnesium chloride (2 mM)). Aliquots were taken at different time points (0, 10, 20, 30, 45 and 60 min), followed by reaction termination by addition of CH3CN:CH3OH 2:1 v/v, containing diclofenac as internal standard (IS). Samples were then centrifuged (at 2000 rpm at 4 °C for 30 min), and resulting supernatants were subjected to LC/MS/MS analysis. The in vitro half-life was calculated in GraphPadPrism software from % remaining vs. time regression using non-linear regression fit. In vitro intrinsic clearance, expressed as mL/min/g liver, was determined from in vitro half-life and normalized for the protein concentration in the incubation mixture, assuming a 52.5 mg/g liver.

[4] = kinetic solubility, turbidimetric method; format: physicochemical; details: for solubility kinetic at 1 h: 37 °C, pH 7.4, aqueous buffer, kinetic from dmso stock, Solubility (kinetic solubility range)
Description: Turbidimetric solubility allows for a rapid determination of kinetic solubility by using small amounts of the test compound. Assay controls were α-naphtoflavone (low solubility) and sulfaphenazole (expected solubility >100µM). DMSO stock solutions (10 mM) of each compound were first serially diluted 1 in 3 in DMSO and then spiked into an aqueous buffer (100 mM PBS), resulting in 5 following final concentration: 100, 30, 10, 3 and 1 µM (each concentration was tested in duplicate). […] Compound samples were compared to a solvent control in an aqueous buffer (DMSO 1% final concentration), and a significant increase of sample absorbance was considered to have occurred when the absorbance reached a 3-fold standard deviation of the average DMSO absorbance. The calculation of solubility range data was made by Excel tool software. Results are expressed as an estimated solubility range.

[5] = in vitro plasma stability, rat plasma; format: in vitro ADME; details: after 4 h
Description: as §1

[6] = target: T1, Autotaxin (ATX) (Homo sapiens, UniProt Q13822); test: biochemical choline detection assay for ATX inhibition, LysoPC substrate; details: for IC50: mean standard deviation from duplicate experiments; for ATX inhibition, range of activity: in words
T1 construct: we added 10 μL of recombinant ATX (2 ng/mL) in a Tris–HCl buffer
Description: All 21 new benzoxaboroles derivatives prepared herein were evaluated for ATX inhibition in vitro using a biochemical choline detection assay, combining elements of assays already described in the literature.
[…] Mother plates with serial dilutions of compounds in pure DMSO were prepared from 10 mM DMSO stock solutions. Storplate-384-deep-well-V plates (Perkin Elmer) were also used for mother plate preparation. Compounds were diluted in a DMSO in a ratio of 1:3. An aliquot of 200 nL of compound solution was transferred from the mother plate to the test plate with a Mosquito nanoliter liquid handling system (TTP labtech). The assay was performed in Spectra-Plate-384 TC, transparent, (Perkin Elmer, Cat#6007658) using a 20 µL assay volume. The total final percentage of DMSO in the test media was 1%. Compounds were tested at 11 consecutive three-fold dilutions starting from 50 µM (final concentrations) in duplicate, covering range of 0.0008–50 μM to determine IC50 values. […] After dispensing of compounds directly to the dry plate, we added 10 μL of recombinant ATX (2 ng/mL) in a Tris–HCl buffer (140 mM NaCl, 1mM MgCl2, 5 mM KCl, 3 mM CaCl2, 1 mg/ml bovin serum albumin (BSA, fatty acid free) and 100 mM Tris–HCl, pH 9). […] The above-described solution with dimethyl sulfoxide but without the test compound was used as a control. LysoPC without ATX was used as a control for the autohydrolysis of LysoPC. After 1.5 h of incubation, 20 μL of stop solution and developer was added {Choline oxidase (1.2 U/mL), Peroxidase (1.2 U/mL), TOOS (2.7 mM), 4-Aminoantipyrine (2.7 mM), and EDTA (50 mM)} to the reaction mixture, and absorbance was measured after 30 min of incubation. The absorbance was measured by using Perkin-Elmer EnVision plate reader (λ = 555 nm). Data were analyzed using GraphPad Prism software. The calculation of IC50 data, curves and quality control (QC) analysis was made by using Excel tools and GraphPadPrism software. Briefly, individual concentration–effect curves were generated by plotting the logarithm of the tested concentration of tested compounds (X) vs. corresponding percentage inhibition values (Y) using a least squares (ordinary) fit. […] QC criteria parameters (Z,’ S:B, ΔmP) were checked for every plate.

[7] = metabolic stability in human liver microsomes; format: in vitro ADME
Description: as §2

[8] = plasma protein binding, equilibrium dialysis, rat plasma; format: in vitro ADME; details: pH 7.4, rat plasma, read-out: PPB: fraction bound, rat (converted)
Description: (§3) Plasma protein binding was measured using the equilibrium dialysis technique. Positive controls included in this assay were: Acebutolol (low binding) and nicardipine (very high binding). The assay was performed in a 96-well Teflon dialysis unit, where each well consisted of two chambers separated by a dialysis membrane. Plasma (human and rat, commercially obtained from Seralab) spiked with each compound (final concentration: 5 µM, 0.5% DMSO) were added to one chamber, and a blank buffer solution (60 mM Na2HPO4/14 mM KH2PO4/70 mM NaCl; pH 7.4) was added to the other side of the well. Each compound was analyzed in duplicate, for 4 h at 37 °C. After 4 h, both the plasma (free and bound fraction) and buffer (only free fraction) side of the well were sampled, matrix matched, then precipitated with a STOP solution (CH3CN:CH3OH 2:1 v/v, containing diclofenac as internal standard), and centrifuged at 2000 rpm for 30 min (+4 °C). The resulting supernatants were analyzed by LC-MS/MS. The fraction bound was calculated as the concentration difference (analyte vs. internal standard peak area ratio) in the plasma and buffer sides divided by the total concentration in the plasma side. Sampling was also performed from spiked plasma at t = 0 min in order to determine recovery, i.e., % of compound detected at t = 4 h in both the plasma and buffer chambers divided by the compound detected at t = 0 min.

[9] = plasma protein binding, equilibrium dialysis, human plasma; format: in vitro ADME; details: for fraction unbound at 4 h, 5 µM: pH 7.4, read-out: PPB: fraction bound, human (converted)
Description: as §3

[10] = choline release assay using as a substrate

Question: For `O=C(OCc1cc(Cl)cc(Cl)c1)N1CCN(C2CCN(C(=O)c3ccc4c(c3)B(O)OC4)C2)CC1` (stereo not drawn) [Compound 30, (3,5-dichlorophenyl)methyl 4-[1-(1-hydroxy-3H-2,1-benzoxaborole-6-carbonyl)pyrrolidin-3-yl]piperazine-1-carboxylate], which chromatographic logD [1] is on record?
Answer: 4.52

Question: What about the “PS (plasma stability), human” value [2] of the same compound?
Answer: 66.5 %remaining

Question: What about the “LMS: predicted in vivo hepatic clearance, rat” value (“LMS: predicted … rat” for short) [3] of the same compound?
Answer: 86 %LBF

Question: And the solubility kinetic at 1 h [4]?
Answer: > 100 µM

Question: What about the “PS (plasma stability), rat” value [5] of the same compound?
Answer: 64.5 %remaining

Question: What about the IC50 [6, 10] of the same compound?
Answer: 180 ± 40 nM

Question: What about the “ATX inhibition, range of activity” value [6] of the same compound?
Answer: nanomolar range

Question: What about the “LMS: predicted in vivo hepatic clearance, human” value (shortened to “LMS: predicted … human”) [7] of the same compound?
Answer: 82 %LBF

Question: What about the fraction unbound at 4 h, 5 µM [8] of the same compound?
Answer: 0.012

Question: And the fraction unbound at 4 h, 5 µM [9]?
Answer: 0.016

Question: Which chromatographic logD [1] does the source give for `O=C(OCc1cc(Cl)cc(Cl)c1)N1CCN(C2CCN(C(=O)c3cccc4c3B(O)OC4)C2)CC1` (stereo not drawn) [Compound 31, (3,5-dichlorophenyl)methyl 4-[1-(1-hydroxy-3H-2,1-benzoxaborole-7-carbonyl)pyrrolidin-3-yl]piperazine-1-carboxylate] here?
Answer: 4.63

Question: What about the “PS (plasma stability), human” value [2] of the same compound?
Answer: 71.6 %remaining

Question: What about the “LMS: predicted … rat” value [3] of the same compound?
Answer: 86 %LBF

Question: What about the solubility kinetic at 1 h [4] of the same compound?
Answer: > 100 µM

Question: What about the “PS (plasma stability), rat” value [5] of the same compound?
Answer: 67.9 %remaining

Question: What about the IC50 [6, 10] of the same compound?
Answer: 7500 ± 5600 nM

Question: What about the “LMS: predicted … human” value [7] of the same compound?
Answer: 85 %LBF

Question: And the fraction unbound at 4 h, 5 µM [9]?
Answer: 0.022

Question: With `O=C(OCc1cc(Cl)cc(Cl)c1)N1CCN(C2CCN(C(=O)c3ccc4c(c3)B(O)OC4)CC2)CC1` [Compound 34] as the compound, how does the “Chrom logD” value [1] read?
Answer: 5.49

Question: And the “PS (plasma stability), human” value [2]?
Answer: 70.6 %remaining

Question: And the “LMS: predicted … rat” value [3]?
Answer: 77 %LBF

Question: What about the “Solubility (kinetic solubility range)” value ([4]; turbidimetric, PBS pH 7.4, after 1h) of the same compound?
Answer: >100 µM

Question: And the “PS (plasma stability), rat” value [5]?
Answer: 61.6 %remaining

Question: And the IC50 ([6]; choline release assay using LPC C16:0 as a substrate)?
Answer: 920 ± 820 nM

Question: And the “ATX inhibition, range of activity” value [6]?
Answer: nanomolar range

Question: And the “LMS: predicted … human” value [7]?
Answer: 89 %LBF

Question: And the “PPB: fraction bound, human” value [9]?
Answer: NA ^e/99.2%

Question: For `O=C(OCc1cc(Cl)cc(Cl)c1)N1CCN(C2CCN(C(=O)c3ccc4c(c3)COB4O)CC2)CC1` [Compound 35, (3,5-dichlorophenyl)methyl 4-[1-(1-hydroxy-3H-2,1-benzoxaborole-5-carbonyl)-4-piperidyl]piperazine-1-carboxylate], which chromatographic logD [1] is on record?
Answer: 4.58

Question: What about the “PS (plasma stability), human” value [2] of the same compound?
Answer: 59.2 %remaining

Question: And the “LMS: predicted … rat” value [3]?
Answer: 86 %LBF

Question: And the solubility kinetic at 1 h [4]?
Answer: > 100 µM

Question: And the “PS (plasma stability), rat” value [5]?
Answer: 63.0 %remaining

Question: What about the IC50 [6, 10] of the same compound?
Answer: 1800 ± 1750 nM

Question: What about the “LMS: predicted … human” value [7] of the same compound?
Answer: 89 %LBF

Question: And the fraction unbound at 4 h, 5 µM [9]?
Answer: 0.017

Question: Which chromatographic logD [1] does the source give for `O=C(OCc1cc(Cl)cc(Cl)c1)N1CCN(C2CN(C(=O)c3ccc4c(c3)B(O)OC4)C2)CC1` [Compound 37, (3,5-dichlorophenyl)methyl 4-[1-(1-hydroxy-3H-2,1-benzoxaborole-6-carbonyl)azetidin-3-yl]piperazine-1-carboxylate] here?
Answer: 4.58

Question: And the “PS (plasma stability), human” value [2]?
Answer: 79.1 %remaining

Question: What about the “LMS: predicted … rat” value [3] of the same compound?
Answer: 62 %LBF

Question: What about the solubility kinetic at 1 h [4] of the same compound?
Answer: 30 to 100 µM (≈ 15.1 to 50.4 µg/mL)

Question: What about the “PS (plasma stability), rat” value [5] of the same compound?
Answer: 71.2 %remaining and 72.2 %remaining

Question: And the IC50 [6, 10]?
Answer: 130 ± 120 nM

Question: What about the “ATX inhibition, range of activity” value [6] of the same compound?
Answer: nanomolar range

Question: What about the “LMS: predicted … human” value [7] of the same compound?
Answer: 85 %LBF

Question: And the fraction unbound at 4 h, 5 µM [8]?
Answer: 0.016

Question: And the fraction unbound at 4 h, 5 µM [9]?
Answer: 0.021
